Source: ChEMBL document CHEMBL5050843, “Amide substituted thiazoles as protein secretion inhibitors” (2019)

What was measured:
[1] = Inhibition of constitutively active VCAMss-Gluc secretion in human Flp-In-T-REx-293 cells measured by Gaussia luciferase reporter gene method; assay type: functional, cell-based
[2] = Inhibition of constitutively active PR1ss-Gluc secretion in human Flp-In-T-REx-293 cells measured by Gaussia luciferase reporter gene method; assay type: functional, cell-based

| SMILES | IC50 [1] | IC50 [2] |
| --- | --- | --- |
| CC(C)(C)c1csc(NC(=O)CC2CCCCCC2)n1 | 5.07 µM | > 25 µM |
| CC(C)(C)c1csc(NC(=O)c2cccc(Cl)c2)n1 | 8.4 µM | > 25 µM |
| CC(C)(C)c1csc(NC(=O)c2cc3cc(Br)ccc3s2)n1 | > 25 µM | > 25 µM |
| CC(C)(C)c1csc(NC(=O)Cn2ncc3ccccc32)n1 | > 25 µM | > 25 µM |
| CC(C)(C)c1csc(NC(=O)Cc2ccc(Cl)cc2)n1 | 4.88 µM | > 25 µM |
| CCCc1ccc2sc(C(=O)Nc3nc(C(C)(C)C)cs3)cc2c1 | 14.1 µM | > 25 µM |
| CC(C)(C)c1csc(NC(=O)c2cc3cc(C(N)=O)ccc3s2)n1 | > 25 µM | > 25 µM |
| CC(C)(C)c1csc(NC(=O)CCc2ccccc2)n1 | 17.4 µM | > 25 µM |
| CC(C)(C)c1csc(NC(=O)c2cc3cc(C(F)(F)F)ccc3s2)n1 | 16.5 µM | > 25 µM |
| CC(C)(C)c1csc(NC(=O)CCc2csc3ccccc23)n1 | 23.1 µM | > 25 µM |
| CC(C)(C)c1csc(NC(=O)c2ccc3cn[nH]c3c2)n1 | > 25 µM | > 25 µM |
| CC(C(=O)Nc1nc(C(C)(C)C)cs1)c1csc2ccc(Cl)cc12 (stereo unspecified) | 3.21 µM | > 25 µM |
| CC(C)(C)c1csc(NC(=O)C(C)(C)C2CCCCC2)n1 | 9.01 µM | > 25 µM |
| CC(C)(C)c1csc(NC(=O)C2CCCc3ccccc32)n1 (stereo unspecified) | > 25 µM | > 25 µM |
| COc1cccc(CC(=O)Nc2nc(C(C)(C)C)cs2)c1 | 10.3 µM | > 25 µM |
| Cc1ccc(C(=O)Nc2nc(C(C)(C)C)cs2)s1 | 7.65 µM | > 25 µM |
| CC(C)(C)c1csc(NC(=O)Cc2ccccc2Cl)n1 | 18.4 µM | > 25 µM |
| CC(C)(C)c1csc(NC(=O)CC2CCCc3ccccc32)n1 (stereo unspecified) | 9.01 µM | > 25 µM |
| CC(C)(C)c1csc(NC(=O)c2cc3cc(C4=CCCC4)ccc3s2)n1 | > 25 µM | > 25 µM |
| CC(C)(C)c1csc(NC(=O)c2ccc3[nH]ncc3c2)n1 | 20.7 µM | > 25 µM |
| CC(C)(C)c1csc(NC(=O)Cc2cn(Cc3ccc(Cl)cc3)c3ccc(Cl)cc23)n1 | 0.325 µM | > 25 µM |
| CC(C)(C)c1csc(NC(=O)c2cccc(N3CCCC3)c2)n1 | > 25 µM | > 25 µM |
| CC(C)(C)c1csc(NC(=O)Cc2cc(F)c(F)c(F)c2)n1 | 8.18 µM | > 25 µM |
| CC(C)(CCO)c1csc(NC(=O)Cc2csc3ccc(Cl)cc23)n1 | > 25 µM | > 25 µM |

| SMILES | IC50 [1] | IC50 [2] |
| --- | --- | --- |
| Cc1ccc(C(=O)Nc2nc(C(F)(F)F)cs2)s1 | > 25 µM | > 25 µM |
| CC(C)(C)c1csc(NC(=O)c2cc3cc(-c4cccc(Cl)c4)ccc3s2)n1 | 5.02 µM | > 25 µM |
| CC(C)(C)c1csc(NC(=O)Cc2csc3ccc(-c4ccccc4)cc23)n1 | 4.57 µM | > 25 µM |
| CC(C)(C)c1csc(NC(=O)C(Cc2ccccc2)c2csc3ccc(Cl)cc23)n1 (stereo unspecified) | 3.92 µM | > 25 µM |
| Cc1cc(C(=O)Nc2nc(C(C)C)cs2)cs1 | 22.8 µM |  |
| CC(C)(C)c1csc(NC(=O)C2CCOC2)n1 (stereo unspecified) | > 25 µM | > 25 µM |
| CC(C)(C)c1csc(NC(=O)C(C)(C)c2cccc(Cl)c2)n1 | 8.6 µM | > 25 µM |
| CC(C)(C)c1csc(NC(=O)C2CCOCC2)n1 | > 25 µM | > 25 µM |
| COCCC(C)(C)c1csc(NC(=O)Cc2csc3ccc(Cl)cc23)n1 | > 25 µM | > 25 µM |
| CC(C)(C)c1csc(NC(=O)c2csc3ccccc23)n1 | 22.6 µM | > 25 µM |
| CC(C)(C)c1csc(NC(=O)c2cc3cc(-c4ccc(Cl)cc4)ccc3s2)n1 | 14 µM | > 25 µM |
| CC(C)(C)c1csc(NC(=O)C2=CCCCC2)n1 | 23.7 µM | > 25 µM |
| CC(C)(C)c1csc(NC(=O)Cn2cnc3ccccc32)n1 | > 25 µM | > 25 µM |
| CC[C@@H](C(=O)Nc1nc(C(C)(C)C)cs1)c1ccccc1 | 9.54 µM | > 25 µM |
| Cc1cc(C(=O)N(C)c2nc(C(C)(C)C)cs2)cs1 | > 25 µM | > 25 µM |
| O=C(Cc1csc2ccc(Cl)cc12)Nc1nc(Cc2ccccc2)cs1 | 19.9 µM | > 25 µM |
| CC(C)(C)c1csc(NC(=O)Cc2cccc(C#N)c2)n1 | 15.4 µM | > 25 µM |
| CC(C)(C)c1csc(NC(=O)Cc2cc(Cl)cc(C(F)(F)F)c2)n1 | 1.54 µM | > 25 µM |
| CC(C)(C)c1csc(NC(=O)c2ccc3ocnc3c2)n1 | > 25 µM | > 25 µM |
| CC(C)(C)c1csc(NC(=O)C(C)(C)c2ccc(Cl)c(Cl)c2)n1 | 6.49 µM | > 25 µM |
| C[C@@H](C(=O)Nc1nc(C(C)(C)C)cs1)c1ccccc1 | 11.1 µM | > 25 µM |
| CC(C)(C)c1csc(NC(=O)c2ccnnc2)n1 | > 25 µM | > 25 µM |
| CC(C)(C)c1csc(NC(=O)Cc2cccc(S(C)(=O)=O)c2)n1 | > 25 µM | > 25 µM |
| CC(C)(C)c1csc(NC(=O)Cc2coc3ccccc23)n1 | 5.3 µM | > 25 µM |

| SMILES | IC50 [1] | IC50 [2] |
| --- | --- | --- |
| CC(C)(C)c1csc(NC(=O)c2ccc3c(c2)CCCO3)n1 | 6.09 µM | > 25 µM |
| CC(C)(CCO)c1csc(NC(=O)Cc2cc(Cl)cc(Cl)c2)n1 | > 25 µM | > 25 µM |
| CC(C)(C)c1csc(NC(=O)CN2CCCCC2)n1 | > 25 µM | > 25 µM |
| CC(C)(C)c1csc(NC(=O)CC2CCOCC2)n1 | > 25 µM | > 25 µM |
| CC(C)(C)c1csc(NC(=O)c2cc3ccccc3s2)n1 | 4.93 µM | > 25 µM |
| CC(C)(C)c1csc(NC(=O)Cc2cccc(Br)c2)n1 | 5.71 µM | > 25 µM |
| CC(C)(C)c1csc(NC(=O)Cc2ccccc2)n1 | 24.1 µM | > 25 µM |
| CC(C)(C)c1csc(NC(=O)c2cc3cccc(Cl)c3s2)n1 | 3.22 µM | > 25 µM |
| CC(C)CC(C(=O)Nc1nc(C(C)(C)C)cs1)c1csc2ccc(Cl)cc12 (stereo unspecified) | 6.53 µM | > 25 µM |
| CC(C)(C)c1csc(NC(=O)[C@H](O)c2cccc(Cl)c2)n1 | > 25 µM | > 25 µM |
| CC(C)(C)c1csc(NC(=O)C(C)(C)c2ccccc2)n1 | 14.7 µM | > 25 µM |
| CC(C)(C)c1csc(NC(=O)CC2CCCC2)n1 | 9.82 µM | > 25 µM |
| CC(C)(C)c1csc(NC(=O)c2cc3cc(-c4cccnc4)ccc3s2)n1 | > 25 µM | > 25 µM |
| CC(C)(C)c1csc(NC(=O)C2CCc3ccccc3C2)n1 (stereo unspecified) | 11.8 µM | > 25 µM |
| C[C@H](C(=O)Nc1nc(C(C)(C)C)cs1)c1ccccc1 | > 25 µM | > 25 µM |
| CC(C)(C)c1csc(NC(=O)c2cccc(C#N)c2)n1 | > 25 µM | > 25 µM |
| CC(C)(C)c1csc(NC(=O)COC2CCCCC2)n1 | > 25 µM | > 25 µM |
| CC(C)(C)c1csc(NC(=O)c2scc3c2CCCC3)n1 | > 25 µM | > 25 µM |
| CC(C)(C)c1csc(NC(=O)c2cc3cc(C4CCCC4)ccc3s2)n1 | > 25 µM | > 25 µM |
| Cc1c(C(=O)Nc2nc(C(C)(C)C)cs2)sc2ccc(Cl)cc12 | > 25 µM | > 25 µM |
| CC(C)(C)c1csc(NC(=O)Cc2cc(Cl)cc(Cl)c2)n1 | 1.69 µM | > 25 µM |
| CC(C)(C)c1csc(NC(=O)Cc2cccc(Cl)c2)n1 | 7.85 µM | > 25 µM |
| CC(C)(C)c1csc(NC(=O)c2ccccc2Cl)n1 | > 25 µM | > 25 µM |
| CC(C)(C)c1csc(NC(=O)Cc2csc3ccc(Br)cc23)n1 | 1.4 µM | > 25 µM |

| SMILES | IC50 [1] | IC50 [2] |
| --- | --- | --- |
| CC(C)(C)c1csc(NC(=O)Cc2c[nH]c3ccccc23)n1 | > 25 µM | > 25 µM |
| CC(C)(C)c1csc(NC(=O)c2cc3ccc(Cl)cc3s2)n1 | > 25 µM | > 25 µM |
| CC(C)(C)c1nc(NC(=O)Cc2csc3ccc(Cl)cc23)sc1Cl | 11.8 µM | > 25 µM |
| C#Cc1ccc2sc(C(=O)Nc3nc(C(C)(C)C)cs3)cc2c1 | > 25 µM | > 25 µM |
| CC(C)(C)c1csc(NC(=O)Cc2cc(F)cc(Cl)c2)n1 | 1.91 µM | > 25 µM |
| CC(C)(C)c1csc(NC(=O)Cc2cn(Cc3cccnc3)c3ccc(Cl)cc23)n1 | 3.67 µM | > 25 µM |
| Cc1cc(C(=O)Nc2nc(C(C)(C)C)cs2)no1 | > 80 µM | > 80 µM |
| C=CCC(C)(C)c1csc(NC(=O)Cc2csc3ccc(Cl)cc23)n1 | 0.775 µM | > 25 µM |
| CC(C)(C)c1csc(NC(=O)c2cc3cc(Cl)ccc3s2)n1 | 9.27 µM | > 25 µM |
| CCc1csc(NC(=O)c2csc(C)c2)n1 | > 25 µM | > 25 µM |
| CC(C)(C)c1csc(NC(=O)c2sc3ccccc3c2Cl)n1 | > 25 µM | > 25 µM |
| CC(C)(C)c1csc(NC(=O)Cc2cn(Cc3cccc(Cl)c3)c3ccc(Cl)cc23)n1 | 0.464 µM | > 25 µM |
| CC(C)(C)c1csc(NC(=O)Cc2cccc(C(F)(F)F)c2)n1 | 6.81 µM | > 25 µM |
| CC(C)(C)c1csc(CNC(=O)Cc2csc3ccccc23)n1 | > 25 µM | > 25 µM |
| CC(C)(C)c1csc(NC(=O)Cc2cn(CC3CCCCC3)c3ccc(Cl)cc23)n1 | 0.714 µM | > 25 µM |
| CC(C)(C)c1csc(NC(=O)c2cc3ccccc3o2)n1 | 23.8 µM | > 25 µM |
| Cc1ccc(CC(=O)Nc2nc(C(C)(C)C)cs2)c(C)c1 | 7.45 µM | > 25 µM |
| CC(C)(C)c1csc(NC(=O)c2cc3cc(C4=CCCCC4)ccc3s2)n1 | 16.2 µM | > 25 µM |
| CCCCCc1ccc2sc(C(=O)Nc3nc(C(C)(C)C)cs3)cc2c1 | 8.14 µM | > 25 µM |
| CC(C)(C)c1csc(NC(=O)C2(c3cccc(Cl)c3)CC2)n1 | 19.6 µM | > 25 µM |
| CC(C)(C)c1csc(NC(=O)c2cccc(CN3CCOCC3)c2)n1 | > 25 µM | > 25 µM |
| Cn1cc(C(=O)Nc2nc(C(C)(C)C)cs2)cn1 | 22.2 µM |  |
